Measured values: ChEMBL document CHEMBL5335794, “Discovery of novel multifunctional ligands targeting GABA transporters, butyrylcholinesterase, β-secretase, and amyloid β aggregation as potential treatment of Alzheimer's disease” (Eur J Med Chem, 2023)

How the values were obtained:
[1] = target: Amyloid-beta precursor protein (Homo sapiens) (UniProt P05067); assay: Inhibition of amyloid beta40 (unknown origin) aggregation at 10 uM measured every 5 mins by ThT fluorescence based assay relative to control
Chain of Amyloid-beta precursor protein (Homo sapiens) (P05067 whole entry): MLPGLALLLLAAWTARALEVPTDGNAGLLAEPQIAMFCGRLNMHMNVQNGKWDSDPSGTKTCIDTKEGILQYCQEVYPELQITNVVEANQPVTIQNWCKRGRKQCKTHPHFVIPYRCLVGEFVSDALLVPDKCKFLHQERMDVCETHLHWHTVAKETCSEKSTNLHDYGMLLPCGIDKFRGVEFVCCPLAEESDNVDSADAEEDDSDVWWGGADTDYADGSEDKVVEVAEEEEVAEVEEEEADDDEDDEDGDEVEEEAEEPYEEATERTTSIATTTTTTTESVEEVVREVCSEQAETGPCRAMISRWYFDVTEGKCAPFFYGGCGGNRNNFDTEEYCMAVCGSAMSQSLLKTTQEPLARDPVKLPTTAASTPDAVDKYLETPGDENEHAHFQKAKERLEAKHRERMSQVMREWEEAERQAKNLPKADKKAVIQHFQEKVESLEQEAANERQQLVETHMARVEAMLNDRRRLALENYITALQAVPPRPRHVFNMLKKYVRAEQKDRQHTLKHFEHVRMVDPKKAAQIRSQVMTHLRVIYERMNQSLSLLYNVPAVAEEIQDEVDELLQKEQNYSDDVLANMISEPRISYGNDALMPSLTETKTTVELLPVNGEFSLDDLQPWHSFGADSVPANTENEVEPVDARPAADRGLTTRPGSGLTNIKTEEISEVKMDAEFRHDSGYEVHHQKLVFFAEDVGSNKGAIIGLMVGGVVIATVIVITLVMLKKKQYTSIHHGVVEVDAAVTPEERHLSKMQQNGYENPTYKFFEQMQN

[2] = target: Amyloid-beta precursor protein (Homo sapiens) (UniProt P05067); assay: Inhibition of amyloid beta42 (unknown origin) aggregation expressed in Escherichia coli BL21 (DE3) at 10 uM measured every 5 mins by ThT fluorescence based assay relative to control
Beta-secretase 1 [3] = target: T1, Beta-secretase 1 (Homo sapiens, UniProt P56817); conditions: dose 50.0 µM, time 60.0 min
T1 sequence (P56817 whole entry): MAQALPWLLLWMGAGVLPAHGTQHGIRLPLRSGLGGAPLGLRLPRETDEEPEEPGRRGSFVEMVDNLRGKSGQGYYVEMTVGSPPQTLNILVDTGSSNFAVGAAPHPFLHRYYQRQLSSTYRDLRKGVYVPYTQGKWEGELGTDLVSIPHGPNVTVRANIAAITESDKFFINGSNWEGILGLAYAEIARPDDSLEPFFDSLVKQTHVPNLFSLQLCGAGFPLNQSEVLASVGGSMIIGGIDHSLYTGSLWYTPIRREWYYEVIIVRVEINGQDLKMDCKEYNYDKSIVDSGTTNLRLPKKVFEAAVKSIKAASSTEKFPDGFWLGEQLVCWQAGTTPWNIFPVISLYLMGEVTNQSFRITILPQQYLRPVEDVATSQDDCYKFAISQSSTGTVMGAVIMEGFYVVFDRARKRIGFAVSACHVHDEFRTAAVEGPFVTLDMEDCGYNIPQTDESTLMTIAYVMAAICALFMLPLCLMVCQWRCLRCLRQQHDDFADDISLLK

GABA transporter 2 = target: T2, GABA transporter 2 (Mus musculus, UniProt P31651); assay: Inhibition of mouse GAT2 transfected in HEK293 cells assessed as reduction in [3H]-GABA uptake preincubated for 25 mins followed by [3H]-GABA addition and measured after 10 mins by liquid scintillation counting analysis; type: cell-based; conditions: read-out: pIC50 (converted)
T2 sequence (P31651 whole entry): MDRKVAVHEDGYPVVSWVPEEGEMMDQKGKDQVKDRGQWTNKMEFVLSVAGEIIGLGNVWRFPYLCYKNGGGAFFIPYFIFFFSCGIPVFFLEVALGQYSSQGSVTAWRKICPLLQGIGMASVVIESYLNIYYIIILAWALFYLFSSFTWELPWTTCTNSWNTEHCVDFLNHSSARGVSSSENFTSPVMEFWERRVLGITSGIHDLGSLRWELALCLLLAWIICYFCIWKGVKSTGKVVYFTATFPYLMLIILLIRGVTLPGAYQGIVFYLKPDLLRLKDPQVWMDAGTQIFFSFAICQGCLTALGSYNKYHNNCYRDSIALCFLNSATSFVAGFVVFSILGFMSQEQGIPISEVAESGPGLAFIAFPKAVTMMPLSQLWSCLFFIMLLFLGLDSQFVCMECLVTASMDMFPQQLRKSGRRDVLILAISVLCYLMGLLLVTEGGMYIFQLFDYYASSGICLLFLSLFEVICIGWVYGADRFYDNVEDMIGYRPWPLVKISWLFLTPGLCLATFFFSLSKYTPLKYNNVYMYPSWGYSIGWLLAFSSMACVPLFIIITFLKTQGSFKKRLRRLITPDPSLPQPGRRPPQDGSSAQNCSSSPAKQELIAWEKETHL

[4] = Inhibition of mouse GAT3 transfected in HEK293 cells assessed as reduction in [3H]-GABA uptake preincubated for 25 mins followed by [3H]-GABA addition and measured after 4 mins by liquid scintillation counting analysis; type: cell-based; conditions: for IC50: HEK293, read-out: pIC50 (converted)
[5] = target: T3, Sodium- and chloride-dependent GABA transporter 1 (Mus musculus, UniProt P31648); assay: Inhibition of mouse GAT1 transfected in HEK293 cells assessed as reduction in [3H]-GABA uptake preincubated for 25 mins followed by [3H]-GABA addition and measured after 4 mins by liquid scintillation counting analysis; type: cell-based; conditions: read-out: pIC50 (converted)
[6] = target: Cholinesterase (Equus caballus) (UniProt P81908); assay: Inhibition of equine serum BuChE using butyrylthiocholine iodide as substrate at 10 uM preincubated for 5 mins followed by substrate addition and measured after 5 mins by DTNB reagent based Ellman's method relative to control; conditions: time 10.0 min
Chain of Cholinesterase (Equus caballus) (P81908 whole entry): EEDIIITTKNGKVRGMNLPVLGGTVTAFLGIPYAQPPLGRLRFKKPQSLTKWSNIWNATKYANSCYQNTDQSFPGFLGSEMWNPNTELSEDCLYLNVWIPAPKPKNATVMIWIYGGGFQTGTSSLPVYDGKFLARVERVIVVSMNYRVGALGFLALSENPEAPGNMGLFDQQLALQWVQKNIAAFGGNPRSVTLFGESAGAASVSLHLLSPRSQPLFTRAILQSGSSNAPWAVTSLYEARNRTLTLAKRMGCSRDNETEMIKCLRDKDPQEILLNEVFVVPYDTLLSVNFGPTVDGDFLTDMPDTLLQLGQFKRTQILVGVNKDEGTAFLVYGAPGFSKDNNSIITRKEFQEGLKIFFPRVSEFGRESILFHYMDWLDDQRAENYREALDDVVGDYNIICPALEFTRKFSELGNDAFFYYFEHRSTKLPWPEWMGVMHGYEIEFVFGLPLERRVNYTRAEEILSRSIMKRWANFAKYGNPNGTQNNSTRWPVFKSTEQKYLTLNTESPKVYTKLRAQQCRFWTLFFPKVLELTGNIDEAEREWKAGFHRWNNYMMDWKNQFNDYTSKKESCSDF

GABA transporter 4 = target: T4, GABA transporter 4 (Mus musculus, UniProt P31650); assay: Inhibition of mouse GAT4 transfected in HEK293 cells assessed as reduction in [3H]-GABA uptake preincubated for 25 mins followed by [3H]-GABA addition and measured after 4 mins by liquid scintillation counting analysis; type: cell-based; conditions: read-out: pIC50 (converted)
T4 sequence (P31650 whole entry): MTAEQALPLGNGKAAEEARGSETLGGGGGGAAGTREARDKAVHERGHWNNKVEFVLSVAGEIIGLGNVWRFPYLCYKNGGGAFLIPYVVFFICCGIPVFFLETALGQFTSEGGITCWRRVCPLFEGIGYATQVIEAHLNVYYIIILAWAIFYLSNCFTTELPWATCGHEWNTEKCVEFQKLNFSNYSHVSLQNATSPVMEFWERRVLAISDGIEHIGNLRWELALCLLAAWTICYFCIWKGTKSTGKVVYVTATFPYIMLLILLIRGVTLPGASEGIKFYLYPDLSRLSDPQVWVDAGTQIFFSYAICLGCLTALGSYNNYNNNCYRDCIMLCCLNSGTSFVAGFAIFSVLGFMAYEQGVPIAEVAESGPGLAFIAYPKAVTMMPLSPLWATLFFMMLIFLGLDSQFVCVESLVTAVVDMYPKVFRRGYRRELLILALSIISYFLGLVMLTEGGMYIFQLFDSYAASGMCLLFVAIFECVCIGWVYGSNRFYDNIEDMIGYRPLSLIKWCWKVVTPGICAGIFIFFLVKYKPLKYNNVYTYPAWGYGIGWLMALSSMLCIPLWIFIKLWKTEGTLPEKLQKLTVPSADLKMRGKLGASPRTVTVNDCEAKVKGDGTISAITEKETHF

[7] = target: Acetylcholinesterase (Electrophorus electricus) (UniProt O42275); assay: Inhibition of electric eel AChE using acetylthiocholine iodide as substrate at 10 uM preincubated for 5 mins followed by substrate addition and measured after 5 mins by DTNB reagent based Ellman's method relative to control; conditions: time 10.0 min
Chain of Acetylcholinesterase (Electrophorus electricus) (O42275 24-633 limits assumed): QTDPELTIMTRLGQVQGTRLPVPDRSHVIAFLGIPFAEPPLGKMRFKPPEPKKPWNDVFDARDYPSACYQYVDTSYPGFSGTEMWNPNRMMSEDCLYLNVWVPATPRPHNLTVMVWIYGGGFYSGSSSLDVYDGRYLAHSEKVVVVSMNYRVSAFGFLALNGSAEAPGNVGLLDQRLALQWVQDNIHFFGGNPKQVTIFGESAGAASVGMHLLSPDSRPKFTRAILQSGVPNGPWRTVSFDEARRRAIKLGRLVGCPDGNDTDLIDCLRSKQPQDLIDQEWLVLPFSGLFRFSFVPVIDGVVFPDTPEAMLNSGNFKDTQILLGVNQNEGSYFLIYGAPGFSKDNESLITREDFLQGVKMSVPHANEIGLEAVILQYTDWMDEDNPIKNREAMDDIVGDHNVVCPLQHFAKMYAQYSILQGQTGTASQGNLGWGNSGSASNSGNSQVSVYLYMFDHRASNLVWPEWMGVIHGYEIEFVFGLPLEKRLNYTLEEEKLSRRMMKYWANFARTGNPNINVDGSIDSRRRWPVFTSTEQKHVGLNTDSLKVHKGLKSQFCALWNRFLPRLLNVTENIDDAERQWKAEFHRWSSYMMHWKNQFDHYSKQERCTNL

[8] = target: Sodium- and chloride-dependent GABA transporter 1 (Mus musculus) (UniProt P31648); assay: Inhibition of NO 711 marker binding to mouse GAT1 assessed as residual activity at 100 uM by LC-ESI-MS/MS based competitive MS binding assay relative to control
Cholinesterase = Cholinesterase (Equus caballus, UniProt P81908)
Chain of Cholinesterase (P81908 whole entry): as the sequence (P81908 whole entry) above
Description: Inhibition of equine serum BuChE using butyrylthiocholine iodide as substrate preincubated for 5 mins followed by substrate addition and measured after 5 mins by DTNB reagent based Ellman's method

[9] = target: T3, Sodium- and chloride-dependent GABA transporter 1; assay: Inhibition of NO 711 marker binding to mouse GAT1 by LC-ESI-MS/MS based competitive MS binding assay
Beta-secretase 1 [10] = target: T1, Beta-secretase 1

Structure (SMILES) | inhibition [1] [%] | inhibition [2] [%] | inhibition (Beta-secretase 1 [3]) [%] | IC50 (GABA transporter 2) [µM] | IC50 [4] [µM] | IC50 [5] [µM] | inhibition [6] [%] | IC50 (GABA transporter 4) [µM] | inhibition [7] [%] | Activity [8] [%] | IC50 (Cholinesterase) [µM] | Ki [9] [µM] | IC50 (Beta-secretase 1 [10]) [µM] | pIC50 ([4]; hek293)
O=C(NCCCCCCCCNc1c2c(nc3cc(Cl)ccc13)CCCC2)c1ccc2nc(-c3ccc(Cl)cc3)c3c(c2c1)NCCC3 | 80.8 | 72.1 | – | – | – | – | – | – | – | – | – | – | – | –
CC(=O)NCCC(C(=O)NCc1ccccc1)N(C)CCOCCN1c2ccccc2Sc2ccccc21 (stereo unspecified) | – | – | 30 | 19.1 | 11.7 | 38 | 58 | 25.1 | < 10 | 82 | – | – | – | –
CC(=O)NCCC(C(=O)NCc1ccc(C)cc1)N(C)CCOCCN1c2ccccc2Sc2ccccc21 (stereo unspecified) | – | – | 52 | 14.1 | 7.94 | 22.9 | – | 12.6 | < 10 | 89 | 3.2 | – | – | –
CC(=O)NCCC(C(=O)NCc1ccc(F)cc1)N(C)CCOCCN1c2ccccc2Sc2ccccc21 (stereo unspecified) | – | – | 45 | 24.5 | 10.7 | 22.9 | – | 18.2 | < 10 | 85 | 8.25 | – | – | –
CN(CCOCCn1c2ccccc2c2ccccc21)C(CCO)C(=O)NCc1ccccc1 (stereo unspecified) | – | – | 64 | 26.9 | 14.8 | 38 | – | 17.4 | < 10 | 92 | 4.16 | – | – | –
Cc1ccc(CNC(=O)C(CCN)N(C)CCOCCN2c3ccccc3Sc3ccccc32)cc1 (stereo unspecified) | – | – | 47 | 7.76 | 7.76 | 11 | – | 11.5 | < 10 | – | 3.63 | 40.7 | – | –
CN(CCC=C1c2ccccc2-c2ccccc21)C(CCO)C(=O)NCc1ccc(Cl)cc1 (stereo unspecified) | – | – | – | – | – | – | 46 | – | < 10 | – | – | – | 17.3 | –
CN(CCOCCN1c2ccccc2Sc2ccccc21)C(CCO)C(=O)NCc1ccccc1 (stereo unspecified) | – | – | 48 | 12.9 | 8.51 | 35.5 | – | 21.4 | < 10 | 93 | 4.34 | – | – | –
CN(CC/C=C/c1ccccc1-c1ccccc1)C(CO)C(=O)NCc1ccc(F)cc1 (stereo unspecified) | – | – | 52 | 22.4 | 22.9 | 28.8 | – | 30.2 | < 10 | 94 | 0.917 | – | – | –
CN(CCOCCn1c2ccccc2c2ccccc21)C(CCN)C(=O)NCc1ccc(F)cc1 (stereo unspecified) | 95.3 | 30.9 | 78 | 20 | 17.4 | 33.9 | – | 18.2 | < 10 | 82 | 0.345 | – | – | –
CN(CCC=C1c2ccccc2CCc2ccccc21)C(CCN)C(=O)NCc1ccc(Cl)cc1 (stereo unspecified) | – | – | – | – | – | – | – | – | 33 | – | 2.98 | – | 29 | –
Cc1ccc(CNC(=O)C(CCO)N(C)CCOCCN2c3ccccc3Sc3ccccc32)cc1 (stereo unspecified) | – | – | 30 | 12.9 | 8.51 | 20.4 | – | 19.1 | < 10 | 85 | 2.48 | – | – | –
CN(CCC=C1c2ccccc2CCc2ccccc21)C(CCN)C(=O)NCc1ccccc1Cl (stereo unspecified) | – | – | – | – | – | – | – | – | 28 | – | 1.23 | – | 5.13 | –
CC(=O)NCCC(C(=O)NCc1ccc(Cl)cc1)N(C)CCOCCN1c2ccccc2Sc2ccccc21 (stereo unspecified) | – | – | 41 | 9.55 | 8.91 | 19.1 | – | 12.3 | < 10 | 91 | 4.7 | – | – | –
CN(CCOCCn1c2ccccc2c2ccccc21)C(CCO)C(=O)NCc1ccc(F)cc1 (stereo unspecified) | – | – | 65 | 13.8 | 16.2 | 37.2 | – | 18.2 | < 10 | 112 | 4.83 | – | – | –
CC(O)CC(C(=O)NCc1ccccc1)N(C)CC/C=C/c1ccccc1-c1ccccc1 (racemic; form 2) | – | – | – | 15.1 | – | 44.7 | – | 41.7 | – | – | 3.71 | 24.5 | – | 4.87
CN(CC/C=C/c1ccccc1-c1ccccc1)C(CO)C(=O)NCc1ccccc1Cl (stereo unspecified) | – | – | 51 | 11 | 17 | 16.2 | – | 15.5 | < 10 | 75 | 2.27 | – | – | –
CC(=O)NCCC(C(=O)NCc1ccccc1Cl)N(C)CCOCCN1c2ccccc2Sc2ccccc21 (stereo unspecified) | – | – | 35 | 20.4 | 10.2 | 14.1 | – | 10.2 | < 10 | 86 | 2.79 | – | – | –
CN(CCOCCN1c2ccccc2Sc2ccccc21)C(CCO)C(=O)NCc1ccccc1Cl (stereo unspecified) | – | – | 35 | 31.6 | 26.3 | 44.7 | – | 29.5 | < 10 | 100 | 3.55 | – | – | –
CN(CCC=C1c2ccccc2CCc2ccccc21)C(CCN)C(=O)NCc1ccc(F)cc1 (stereo unspecified) | – | – | – | – | – | – | – | – | 21 | – | 1.21 | – | 4.88 | –
CN(CCOCCN1c2ccccc2Sc2ccccc21)C(CCO)C(=O)NCc1ccc(F)cc1 (stereo unspecified) | – | – | 42 | 11.5 | 11 | 26.9 | – | 13.2 | < 10 | 84 | 4.54 | – | – | –
CN(CCC=C1c2ccccc2-c2ccccc21)C(CCO)C(=O)NCc1ccc(F)cc1 (stereo unspecified) | 77.1 | 21.5 | 66 | – | – | – | – | – | < 10 | – | 0.978 | – | – | –
CN(CC/C=C/c1ccccc1-c1ccccc1)C(CO)C(=O)NCc1ccccc1 (stereo unspecified) | – | – | 42 | 20 | 17 | 25.1 | – | 17.4 | < 10 | 67 | 0.683 | – | – | –
CN(CCC=C1c2ccccc2CCc2ccccc21)C(CCN)C(=O)NCc1ccccc1 (stereo unspecified) | – | – | – | – | – | – | – | – | 15 | – | 1.47 | – | 6.68 | –
Cc1ccc(CNC(=O)C(CCN)N(C)CCC=C2c3ccccc3CCc3ccccc32)cc1 (stereo unspecified) | – | – | – | – | – | – | – | – | 15 | – | 2.35 | – | 4.03 | –
CN(CCC=C1c2ccccc2-c2ccccc21)C(CCO)C(=O)NCc1ccccc1 (stereo unspecified) | 58.7 | 15.8 | – | – | – | – | – | – | < 10 | – | 0.978 | – | 19.5 | –
